We go through 4 compounds from publication PMC8816891, “High-throughput cell-based assays for identifying antagonists of multiple smoking-associated human nicotinic acetylcholine receptor subtypes” (SLAS discovery : advancing life sciences R & D, 2021).

The target in test [1] is T1, human α3β4-nAChR (Homo sapiens, UniProt P30926+P32297).
T1 construct: expressed in transfected cells
Description: membrane potential dye assay, SH-EP1-α3β4-nAChR cells. The format is cell-based. How it is done: (§1) Concordance between replicates was assessed using linear regression.

The target in test [2] is T2, human α6/3β2β3-nAChR (Homo sapiens, UniProt P17787+P32297+Q05901+Q15825).
T2 construct: expressed in transfected cells
T2 sequence (Q15825+P32297 fused with the stated changes): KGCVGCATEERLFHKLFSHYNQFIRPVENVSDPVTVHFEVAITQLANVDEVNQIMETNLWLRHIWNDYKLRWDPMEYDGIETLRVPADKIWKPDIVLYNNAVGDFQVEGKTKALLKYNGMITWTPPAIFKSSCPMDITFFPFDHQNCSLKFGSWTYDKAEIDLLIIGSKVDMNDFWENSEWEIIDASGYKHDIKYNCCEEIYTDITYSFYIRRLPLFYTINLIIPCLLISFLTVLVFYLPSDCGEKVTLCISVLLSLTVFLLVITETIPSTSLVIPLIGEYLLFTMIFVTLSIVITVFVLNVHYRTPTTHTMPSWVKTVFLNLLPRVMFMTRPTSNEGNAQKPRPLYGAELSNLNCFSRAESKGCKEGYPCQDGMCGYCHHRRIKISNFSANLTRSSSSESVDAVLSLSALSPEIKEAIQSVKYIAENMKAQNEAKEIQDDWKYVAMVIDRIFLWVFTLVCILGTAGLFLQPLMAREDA
T2 sequence (P17787 26-502): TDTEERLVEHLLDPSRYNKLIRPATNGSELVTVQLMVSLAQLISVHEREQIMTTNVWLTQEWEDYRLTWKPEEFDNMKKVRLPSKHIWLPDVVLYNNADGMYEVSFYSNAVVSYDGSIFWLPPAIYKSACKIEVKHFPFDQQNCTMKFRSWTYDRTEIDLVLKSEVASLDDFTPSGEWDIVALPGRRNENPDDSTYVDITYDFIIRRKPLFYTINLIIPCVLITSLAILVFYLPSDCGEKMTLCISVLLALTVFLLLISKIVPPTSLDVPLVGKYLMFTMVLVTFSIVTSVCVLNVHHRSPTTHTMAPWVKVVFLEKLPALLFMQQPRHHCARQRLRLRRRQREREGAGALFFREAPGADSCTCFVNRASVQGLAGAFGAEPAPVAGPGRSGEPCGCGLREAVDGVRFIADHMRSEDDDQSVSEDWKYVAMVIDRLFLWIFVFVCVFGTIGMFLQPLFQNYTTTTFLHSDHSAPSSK
T2 sequence (Q05901 22-458): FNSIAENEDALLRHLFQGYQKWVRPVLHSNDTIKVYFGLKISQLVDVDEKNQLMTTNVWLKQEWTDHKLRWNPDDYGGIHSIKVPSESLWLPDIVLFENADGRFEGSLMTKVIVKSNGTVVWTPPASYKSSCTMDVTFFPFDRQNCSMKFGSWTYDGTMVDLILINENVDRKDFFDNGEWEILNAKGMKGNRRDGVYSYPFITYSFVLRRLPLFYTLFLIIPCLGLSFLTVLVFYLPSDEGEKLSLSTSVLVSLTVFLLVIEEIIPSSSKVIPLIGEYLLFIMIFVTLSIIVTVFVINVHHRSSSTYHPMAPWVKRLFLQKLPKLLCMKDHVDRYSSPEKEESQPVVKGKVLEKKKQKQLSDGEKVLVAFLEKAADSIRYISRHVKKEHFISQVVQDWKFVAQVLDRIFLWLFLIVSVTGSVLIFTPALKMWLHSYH
Description: membrane potential dye assay, SH-EP1-α6/3β2β3-nAChR cells. Format: cell-based. Here is the method: as §1

In test [3] the target is T3, human α4β2-nAChR (Homo sapiens, UniProt P17787+P43681). Description: cell-based.
T3 sequence (P43681 29-627 limits assumed): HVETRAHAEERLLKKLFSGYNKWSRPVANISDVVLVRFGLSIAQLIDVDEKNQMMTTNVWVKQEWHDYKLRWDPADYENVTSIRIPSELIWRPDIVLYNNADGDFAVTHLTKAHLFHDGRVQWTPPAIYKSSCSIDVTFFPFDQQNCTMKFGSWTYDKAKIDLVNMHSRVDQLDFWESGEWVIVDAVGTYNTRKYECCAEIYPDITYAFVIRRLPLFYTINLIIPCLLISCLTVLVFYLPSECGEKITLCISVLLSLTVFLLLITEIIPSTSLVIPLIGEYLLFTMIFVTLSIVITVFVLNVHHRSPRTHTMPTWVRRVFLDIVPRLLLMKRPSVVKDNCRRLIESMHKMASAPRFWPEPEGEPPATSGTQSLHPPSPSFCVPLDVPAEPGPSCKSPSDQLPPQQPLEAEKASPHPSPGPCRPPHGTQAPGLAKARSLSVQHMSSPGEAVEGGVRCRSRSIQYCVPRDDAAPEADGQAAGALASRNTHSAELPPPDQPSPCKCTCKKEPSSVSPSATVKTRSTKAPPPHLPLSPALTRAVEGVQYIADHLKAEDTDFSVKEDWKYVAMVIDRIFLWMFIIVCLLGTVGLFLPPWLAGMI
T3 sequence (P17787 26-502): as the sequence (P17787 26-502) above
Description: As described in that prior publication, this SH-EP1-α6/3 β2β3-nAChR monoclone is maintained in medium supplemented with zeocin (0.25 mg/mL), hygromycin (0.13 mg/mL biologically active) and G418 (0.6 mg/mL) to maintain positive selection of transfectants, and cultured at low passage numbers (1–40 from our frozen stocks) to ensure stable expression of the phenotype.
For the SH-EP1-α4 β2-nAChR and SH-EP1-α6/3 β2β3-nAChR lines: cells were seeded into 384-well black tissue culture plates (Corning #3712) at 7000 cells per well in 50 μl assay media using a microfill (BioTek). The plates were incubated overnight at 37 °C to allow cells to adhere to the plate, then transferred to 29 °C and incubated for ~72h to maximize receptor expression. On the compound addition day, medium was aspirated and plates washed one time with wash buffer (1x HBSS with 20 mM HEPES adjusted to pH 7.4) using a BioTek ELx405 Select CW Plate Washer. Twenty-five microliters of 0.5x FLIPR Membrane Potential dye (Molecular Devices, R8034; prepared in wash buffer) was added to the plates using a microfill. The plates were further incubated at 29 °C for 60 min and background fluorescence was measured (Envision, Perkin Elmer). […] Plates were then incubated at room temperature for 20 min and fluorescence was measured again. Background fluorescence was subtracted from the final fluorescence read during data analysis.
EC50 values were calculated using nonlinear regression analysis via GraphPad Prism 7 (GraphPad software, Inc.).
After subtracting background fluorescence from fluorescent read for each plate well, the raw data were converted into a list and all plates were appended by run. For analysis purposes, each data point was annotated with well coordinate, well type, compound identifier, titer plate barcode, run identifier, date, and protocol information. Basic statistics and QC criteria were calculated within TIBCO Spotfire (v7.0.0). Basic statistics of control wells were examined by well type, by run, plate, and row/column to monitor run-to-run and plate-to-plate variation, and to exclude possible experimental issues such as striping. […] Concordance between replicates was assessed using linear regression. For each test well, the percentage of inhibition was obtained by subtracting the normalized fluorescent signal (NFS), expressed as a percentage, from 100%.
Test [4] has as its target T1, human α3β4-nAChR. As to the kind of experiment: 86Rb+ efflux orthogonal assay, SH-EP1-α3β4-nAChR cells. Particulars: 10 μM; validated = reduced specific efflux by > 3x SD vs no-drug control. The format is cell-based. How it is done: (§2) Cells were grown to confluence in 24-well plates (Falcon; 500 μl volume per well). The evening before each assay was to be performed, the medium was removed and replaced with 250 μl per well of complete medium supplemented with ~350,000 cpm of ^86Rb^+ (NEN; counted at 40% efficiency using Cerenkov counting and the Packard TriCarb 1900 Liquid Scintillation Analyzer). This allowed overnight loading of cells with tracer.
(§3) Determinations of antagonist efficacy were performed in triplicate in each plate, and each antagonist was tested in three separate experiments. […] Specific efflux was then taken as the difference in control samples between total and non-specific ^86Rb^+ efflux, and was used to calculate the efficacy of blocking specific efflux by the test compounds.
(§4) Fig. 4. Validation and specificity testing of HTS antagonist hits using an orthogonal assay. […] (A) All plates were normalized to internal maximum and minimum controls, as described in the Materials and Methods section. […] Activity measured at α3β4-nAChR is shown with blue symbols, that at α4β2-nAChR with red symbols, and that at α6/3 β2 β3-nAChR with green symbols. Dashed lines are color-matched to data symbols and designate the 3 X SD thresholds above the no-antagonist controls, used to determine validation of antagonist activity in each of the assays.

In test [5] the target is T2, human α6/3β2β3-nAChR. Description: 86Rb+ efflux orthogonal assay, SH-EP1-α6/3β2β3-nAChR cells. Particulars: 10 μM; validated = reduced specific efflux by > 3x SD vs no-drug control. The format is cell-based. Here is the method:
as §2, §3, §4

Test [6] has as its target T3, human α4β2-nAChR. Description: 86Rb+ efflux orthogonal assay, SH-EP1-α4β2-nAChR cells. Particulars: 10 μM; validated = reduced specific efflux by > 3x SD vs no-drug control. Also on record: expressed in transfected cells. The format is cell-based. How it is done:
Cells were grown to confluence in 24-well plates (Falcon; 500 μl volume per well). The evening before each assay was to be performed, the medium was removed and replaced with 250 μl per well of complete medium supplemented with ~350,000 cpm of ^86Rb^+ (NEN; counted at 40% efficiency using Cerenkov counting and the Packard TriCarb 1900 Liquid Scintillation Analyzer). This allowed overnight loading of cells with tracer. The assay was based on a proven, routine ^86Rb^+ efflux assay “flip-plate” protocol that includes 1500 nM atropine to exclude possible contributions of muscarinic acetylcholine receptors, with test compound or control solutions applied for 30 s.
Determinations of antagonist efficacy were performed in triplicate in each plate, and each antagonist was tested in three separate experiments. […] Both determinations of non-specific efflux were equivalent. Specific efflux was then taken as the difference in control samples between total and non-specific ^86Rb^+ efflux, and was used to calculate the efficacy of blocking specific efflux by the test compounds.
Fig. 4. Validation and specificity testing of HTS antagonist hits using an orthogonal assay. […] Activity measured at α3β4-nAChR is shown with blue symbols, that at α4β2-nAChR with red symbols, and that at α6/3 β2 β3-nAChR with green symbols. […]

The mark [7] stands for this setting: read-out: pre-determined EC90 value.
[8] abbreviates: IC50, 5 min incubation, in the presence of 500nM of nicotine.
Where [9] appears, read: IC50, 10 min incubation, in the presence of 500nM of nicotine.
The mark [10] stands for this setting: IC50, 20 min incubation, in the presence of 500nM of nicotine.
Where [11] appears, read: IC50, 25 min incubation, in the presence of 500nM of nicotine.
Setting [12] is: average IC50 across all time-points, averaged over 5-30 min reads, nicotine at EC90.

Where a name gives a salt, the structure may show the parent alone. Read-outs that look alike come from different tables or passages of the source.

T1 sequence (P32297 32-505): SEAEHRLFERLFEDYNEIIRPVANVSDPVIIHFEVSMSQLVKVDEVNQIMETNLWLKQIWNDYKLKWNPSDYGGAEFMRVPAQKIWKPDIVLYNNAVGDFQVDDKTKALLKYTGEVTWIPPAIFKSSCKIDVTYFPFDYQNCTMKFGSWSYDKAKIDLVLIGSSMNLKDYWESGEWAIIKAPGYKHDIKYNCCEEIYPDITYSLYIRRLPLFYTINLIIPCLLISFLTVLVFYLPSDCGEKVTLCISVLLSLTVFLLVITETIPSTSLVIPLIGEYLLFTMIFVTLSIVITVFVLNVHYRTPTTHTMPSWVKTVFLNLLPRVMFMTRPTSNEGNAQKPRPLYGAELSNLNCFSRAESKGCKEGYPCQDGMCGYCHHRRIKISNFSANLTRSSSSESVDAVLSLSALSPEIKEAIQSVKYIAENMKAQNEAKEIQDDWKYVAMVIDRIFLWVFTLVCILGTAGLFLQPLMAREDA
T1 sequence (P30926 22-498): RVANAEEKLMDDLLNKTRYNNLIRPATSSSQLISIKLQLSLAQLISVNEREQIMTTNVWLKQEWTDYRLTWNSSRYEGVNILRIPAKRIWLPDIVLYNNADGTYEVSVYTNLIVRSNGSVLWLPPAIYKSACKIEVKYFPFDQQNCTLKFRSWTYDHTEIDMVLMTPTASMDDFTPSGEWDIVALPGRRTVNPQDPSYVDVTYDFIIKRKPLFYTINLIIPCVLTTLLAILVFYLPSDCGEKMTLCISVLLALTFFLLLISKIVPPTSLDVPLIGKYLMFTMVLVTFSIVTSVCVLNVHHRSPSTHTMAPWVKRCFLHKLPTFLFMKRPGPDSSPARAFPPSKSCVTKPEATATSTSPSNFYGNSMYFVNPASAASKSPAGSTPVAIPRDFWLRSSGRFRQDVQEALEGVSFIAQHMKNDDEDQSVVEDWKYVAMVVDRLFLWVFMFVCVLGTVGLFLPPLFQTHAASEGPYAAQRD

With `CN1CCC[C@H]1c1cccnc1` [nicotine, (−)-nicotine], the results for the EC90 at human α3β4-nAChR [1] (setting [7]), at human α6/3β2β3-nAChR [2] (setting [7]) and on human α4β2-nAChR [3] (setting [7]) were 20 µM, 0.5 µM and 0.5 µM, respectively.
On to `CNCCC=C1c2ccccc2CCc2ccccc21` [nortriptyline hydrochloride], for which the “antagonist hit call in pilot screen” value on human α3β4-nAChR [1] (test compound 10 μM with 20 μM nicotine (EC90), hit = signal below mean - 3 SD) is listed as “identified as a hit”.
For `CNC1(C)C2CCC(C2)C1(C)C` (stereo not drawn) [mecamylamine], the IC50 came to 1.67 µM at human α6/3β2β3-nAChR [2] (in the presence of 500 nM nicotine (EC90), read-out: IC50 (α6/3β2β3), Fig. 2D); 1.67 µM at human α6/3β2β3-nAChR [2] (nicotine at EC90, read-out: average IC50, comparison across subtypes); 0.896 µM against human α4β2-nAChR [3] (IC50); 0.537 µM on human α4β2-nAChR [3] (IC50 (α4β2), Fig. 2D, in the presence of 500 nM nicotine (EC90), subtype comparison); 2.25 µM on human α4β2-nAChR [3] (setting [8]); 1.09 µM on human α4β2-nAChR [3] (setting [9]). Also, the IC50 at human α4β2-nAChR [3] (setting [10]) was 0.919 µM; at human α4β2-nAChR [3] (setting [11]) it was 0.983 µM; at human α4β2-nAChR [3] (average IC50, comparison across subtypes, nicotine at EC90), 0.54 µM; against human α4β2-nAChR [3] (setting [12]), 1.21 ± 0.52 µM. In addition, the “antagonist hit identified in HTS and validated by 86Rb+ efflux” value is “identified and validated as a hit” at human α3β4-nAChR [4]; “identified and validated as a hit” on human α6/3β2β3-nAChR [5]; “identified and validated as a hit” at human α4β2-nAChR [6].
For the compound `C[N+](C)(C)CCCCCC[N+](C)(C)C` [hexamethonium], the IC50 against human α4β2-nAChR [3] (IC50) was 71.6 µM; on human α4β2-nAChR [3] (setting [8]), 98.3 µM; at human α4β2-nAChR [3] (setting [9]) it was 100 µM; at human α4β2-nAChR [3] (setting [10]) it was 47.9 µM; at human α4β2-nAChR [3] (setting [11]) it was 38.9 µM; at human α4β2-nAChR [3] (IC50, 30 min incubation, in the presence of 500nM of nicotine), 37.4 µM. This compound also came in with an IC50 against human α4β2-nAChR [3] (setting [12]) of 65.8 ± 28.8 µM.
